Measured values published in patent EP0103381B1, “Substituted anthra(1,9-cd)pyrazol-6(2H)-ones” (WARNER-LAMBERT COMPANY, priority 1982, dated 1984).
Read-outs that look alike come from different tables or passages of the source.

Legend:
[1] = system: HCT-8 (human colon adenocarcinoma) cells; test: in vitro activity against human colon adenocarcinoma (HCT-8), cell count; assay type: cell-based; settings: HCT-8 human colon adenocarcinoma cells, 60-65 hrs incubation with compound, Coulter counter cell count as percentage of controls; read-out: ID50 (the source's name)
Description: HCT-8 (human colon adenocarcinoma) cells are trypsinized using Trypsin-EDTA. A single cell suspension is achieved by passing the cells through a 26 gauge needle with a 20 cc syringe. A cell suspension is prepared using RPMI 1640 growth medium (available from Gibco Laboratories) +10% fetal calf serum +50 µg/ml garamycin with a cell concentration of approximately 30,000 cells/ml. The cell suspension is dispensed in Linbro 24-well plates; 1 ml/well. The plates are incubated for approximately 48 hrs at 37°C in a 5% C02 atmosphere. At this time test compounds are added in the appropriate concentration. Five µl of the 200 µg/ml stock solution is added to each well in a primary test. Ten pl of the appropriate dilution is added to each well for a titration test. The plates are reincubated an additional 60-65 hrs at 37°C in a 5% C02 atmosphere. The test is read by lysing the cells using a mix of cationic surfactant, glacial acetic acid and sodium chloride. […] of the lysed cell suspension from each well is added to 8 ml of diluent. Each sample is read with a Coulter counter (ZBI model). The activity of each sample is measured as a percentage of the controls and the data is reported as ID50, that is the molar quantity of drug required to kill 50% of the tumor cells.

Aerobacter aerogenes = test: agar plate paper-disc inhibition zone screening; assay type: cell-based; settings: Klebsiella aerogenes, read-out: Inhibition Zone Diameter mm (Dose mg/ml) A. Aerogenes; for zone of inhibition at 500 µg/mL: Dose 0.5 mg/ml
How it was run: (§1)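 Overnight bacterial cultures were suspended in 0.85% saline to 20-35% light transmittancy and mixed into molten assay agar poured in trays. Compounds at 3,000, 1,000, 500, 100 and 10 mcg/ml (solvent <10%) were applied to 12.7 mm paper discs; after 18-20 h at 37°C, inhibition zone diameters were measured in mm.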

Bacillus subtilis = test: agar plate paper-disc inhibition zone screening; assay type: cell-based; settings: read-out: Inhibition Zone Diameter mm (Dose mg/ml) B. Subtilis
How it was run: as §1

Escherichia coli = test: agar plate paper-disc inhibition zone screening; assay type: cell-based; settings: read-out: Inhibition Zone Diameter mm (Dose mg/ml) E. Coli; for zone of inhibition at 500 µg/mL: Dose 0.5 mg/ml; for zone of inhibition at 1000 µg/mL: Dose 1.0 mg/ml
How it was run: as §1

Streptococcus faecalis = test: agar plate paper-disc inhibition zone screening; assay type: cell-based; settings: Enterococcus faecalis, read-out: Inhibition Zone Diameter mm (Dose mg/ml) S. Faecalis
How it was run: as §1

Penicillium avellaneum = test: agar plate paper-disc inhibition zone screening; assay type: cell-based; settings: Hamigera avellanea, read-out: Inhibition Zone Diameter mm (Dose mg/ml) P. Avellaneum
How it was run: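 Mycelia and spores from a six-day 28°C agar culture, suspended in saline with 0.05% Tween 80 at 20% transmittancy, were seeded into molten agar trays. Compounds at 3,000, 1,000, 500, 100 and 10 mcg/ml (solvent <10%) were applied on 12.7 mm paper discs. After at least 20-24 h incubation, inhibition zone diameter was measured in mm.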

[2] = system: lymphocytic leukemia P388; test: in vivo lymphocytic leukemia P388 test; parameters: species or system mice; settings: Mus musculus, P388, ip, 720 h; for response vs control in vivo at 25 mg/kg: P388, Dose 25 mg/kg intraperitoneally
How it was run: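 Efficacy was judged from the treated/control survival-time ratio over 30 days (T/C×100 >125% as criterion). Mice (CD2F, 6–7/group) received i.p. P388 ascites cells, then compound i.p. at varied doses twice, four days apart.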

[3] = P388, Dose 3.12 mg/kg intraperitoneally, two single doses four days apart, read-out: T/C × 100 (Percent)
[4] = P388, Dose 6.25 mg/kg intraperitoneally, two single doses four days apart, read-out: T/C × 100 (Percent)
[5] = P388, Dose 12.5 mg/kg intraperitoneally, two single doses four days apart, read-out: T/C × 100 (Percent)
[6] = two single doses four days apart, read-out: T/C × 100 (Percent)
[7] = P388, Dose 50 mg/kg intraperitoneally, two single doses four days apart, read-out: T/C × 100 (Percent)
[8] = P388, Dose 100 mg/kg intraperitoneally, two single doses four days apart, read-out: T/C × 100 (Percent)

| SMILES | zone of inhibition at 500 µg/mL (Aerobacter aerogenes) | zone of inhibition at 3000 µg/mL (Penicillium avellaneum; Dose 3.0 mg/ml) | response vs control in vivo at 3.12 mg/kg [2, 3] | response vs control in vivo at 6.25 mg/kg [2, 4] | response vs control in vivo at 12.5 mg/kg [2, 5] | response vs control in vivo at 25 mg/kg [2, 6] | zone of inhibition at 3000 µg/mL (Aerobacter aerogenes; Dose 3.0 mg/ml) | zone of inhibition at 3000 µg/mL (Bacillus subtilis; Dose 3.0 mg/ml) | zone of inhibition at 3000 µg/mL (Escherichia coli; Dose 3.0 mg/ml) | zone of inhibition at 3000 µg/mL (Streptococcus faecalis; Dose 3.0 mg/ml) | further results |
| --- | --- | --- | --- | --- | --- | --- | --- | --- | --- | --- | --- |
| CN(CCO)CCn1nc2c3c(c(NCCNCCO)ccc31)C(=O)c1c(O)ccc(O)c1-2 | – | – | – | – | – | – | – | – | – | – | IC50 [1]: 450 nM |
| CCN(CC)CCNc1ccc2c3c(nn2CCNCCO)-c2c(O)ccc(O)c2C(=O)c13 [Example 57, 5-[[2-(Diethylamino)ethyl]amino]-7,10-dihydroxy-2-[2-[(2-hydroxyethyl)amino]ethyl]anthra[1,9-cd]pyrazol-6(2H)-one] | 14 mm | 14 mm | 148% | 154% | 177% | 190% | – | – | – | – | zone of inhibition at 500 µg/mL (Bacillus subtilis; Dose 0.5 mg/ml): 15 mm; zone of inhibition at 500 µg/mL (Escherichia coli): 14 mm; zone of inhibition at 1000 µg/mL (Streptococcus faecalis; Dose 1.0 mg/ml): 14 mm; response vs control in vivo at 1.56 mg/kg ([2]; P388, Dose 1.56 mg/kg intraperitoneally, two single doses four days apart, read-out: T/C × 100 (Percent)): 131%; response vs control in vivo at 50 mg/kg [2, 7]: 241% |
| NCCCNc1ccc2c3c(nn2CCNCCO)-c2c(O)ccc(O)c2C(=O)c13 [Example 58, 5-[(3-Aminopropyl)amino]-7,10-dihydroxy-2-[2-[(2-hydroxyethyl)amino]ethyl]anthra[1,9-cd]pyrazol-6(2H)-one] | – | – | – | – | – | – | – | – | – | – | zone of inhibition at 3000 µg/mL (Aerobacter aerogenes): 14 mm; zone of inhibition at 3000 µg/mL (Bacillus subtilis): 0 mm; zone of inhibition at 3000 µg/mL (Escherichia coli): 15 mm; zone of inhibition at 3000 µg/mL (Streptococcus faecalis): 0 mm; zone of inhibition at 3000 µg/mL (Penicillium avellaneum): 0 mm; response vs control in vivo at 3.12 mg/kg ([2]; read-out: T/C × 100 (Percent), P388, Dose 3.12 mg/kg intraperitoneally, two single doses four days apart): 165%; response vs control in vivo at 6.25 mg/kg ([2]; read-out: T/C × 100 (Percent), P388, Dose 6.25 mg/kg intraperitoneally, two single doses four days apart): 165%; response vs control in vivo at 12.5 mg/kg ([2]; read-out: T/C × 100 (Percent), P388, Dose 12.5 mg/kg intraperitoneally, two single doses four days apart): 177%; response vs control in vivo at 50 mg/kg ([2]; read-out: T/C × 100 (Percent), P388, Dose 50 mg/kg intraperitoneally, two single doses four days apart): 254%; response vs control in vivo at 100 mg/kg ([2]; read-out: T/C × 100 (Percent), P388, Dose 100 mg/kg intraperitoneally, two single doses four days apart): 131% |
| NCCCCNc1ccc2c3c(nn2CCNCCO)-c2c(O)ccc(O)c2C(=O)c13 [Example 59, 5-[(4-Aminobutyl)amino]-7,10-dihydroxy-2-[2-[(2-hydroxyethyl)amino]ethyl]anthra[1,9-cd]pyrazol-6(2H)-one] | – | 0 mm | 130% | 131% | 139% | 150% | 16 mm | 0 mm | 15 mm | 0 mm | response vs control in vivo at 100 mg/kg [2, 8]: 172% |
| NCCCCCNc1ccc2c3c(nn2CCNCCO)-c2c(O)ccc(O)c2C(=O)c13 [Example 60, 5-[(5-Aminopentyl)amino]-7,10-dihydroxy-2-[2-[(2-hydroxyethyl)amino]ethyl]anthra[1,9-cd]pyrazol-6(2H)-one] | – | 0 mm | – | – | 127% | 127% | 0 mm | 0 mm | 14 mm | 0 mm | response vs control in vivo at 50 mg/kg [2, 7]: 127%; response vs control in vivo at 100 mg/kg [2, 8]: 150% |
| O=C1c2c(O)ccc(O)c2-c2nn(CCNCCO)c3ccc(NCCCNCCO)c1c23 [Example 62, 7,10-Dihydroxy-2-[2-[(2-hydroxyethyl)amino]ethyl]-5-[[3-[(2-hydroxyethyt)amino]propyl]amino]anthra[1,9-cd] pyrazol-6(2H)-one] | 14 mm | 0 mm | 173% | – | – | – | – | – | – | 14 mm | zone of inhibition at 1000 µg/mL (Bacillus subtilis; Dose 1.0 mg/ml): 16 mm; zone of inhibition at 500 µg/mL (Escherichia coli): 14 mm |
| CN(C)CCNCCNc1ccc2c3c(nn2CCNCCO)-c2c(O)ccc(O)c2C(=O)c13 [Example 63] | – | 0 mm | 152% | 169% | – | – | – | 18 mm | – | 16 mm | zone of inhibition at 1000 µg/mL (Aerobacter aerogenes; Dose 1.0 mg/ml): 14 mm; zone of inhibition at 1000 µg/mL (Escherichia coli): 15 mm |
| CN1CCN(c2ccc3c4c(nn3CCNCCO)-c3c(O)ccc(O)c3C(=O)c24)CC1 [Example 64, 7,10-Dihydroxy-2-[2-[(2-hydroxyethyl)amino]ethyl]-5-(4-methyl-1-piperazinyl)anthra[1,9-cd]pyrazol-6(2H)-one] | 17 mm | 0 mm | – | 163% | 169% | 150% | – | 0 mm | – | 0 mm | zone of inhibition at 1000 µg/mL (Escherichia coli): 14 mm |
| CN(C)CCN(C)c1ccc2c3c(nn2CCNCCO)-c2c(O)ccc(O)c2C(=O)c13 [Example 65, 5-([2-(Dimethylamino)ethyl]methylamino]-7,10-dihydroxy-2-[2-[(2-hydroxyethyl)amino]ethyl]anthra[1,9-cd]pyrazol-6(2H)-one] | 16 mm | 0 mm | – | 179% | 188% | – | – | 0 mm | 15 mm | 0 mm | – |
| COCCn1nc2c3c(c(NCCNCCO)ccc31)C(=O)c1c(O)ccc(O)c1-2 [Example 76, 7,10-Dihydroxy-5-[[2-[(2-hydroxyethyl)amino]ethyl]amino]-2-(2-methoxyethyl)anthra[1,9-cd]pyrazol-6(2H)-one] | – | 0 mm | – | – | 127% | 127% | 14 mm | 14 mm | – | 0 mm | zone of inhibition at 1000 µg/mL (Escherichia coli): 14 mm; response vs control in vivo at 50 mg/kg [2, 7]: 135%; response vs control in vivo at 100 mg/kg [2, 8]: 139% |
| CN(C)CCCn1nc2c3c(c(NCCN)ccc31)C(=O)c1c(O)ccc(O)c1-2 [Example 94, 5-[(2-Aminoethyl)amino]-2-[3-(dimethylamino)propyl]-7,10-dihydroxyanthra[1,9-cd]pyrazol-6(2H)-one] | – | 0 mm | 191% | 186% | 224% | – | 15 mm | 0 mm | 15 mm | 0 mm | – |
